A word on the IC50: it is the concentration at which inhibition is half-maximal.

The results in this text go back to US20240140958A1, “FUSED QUADRACYCLIC COMPOUNDS, COMPOSITIONS AND USES THEREOF” (Tabomedex Biosciences, Inc., priority 2021, published 2024).

The target in assay [1] is T1, MAPKAPK2 Recombinant Human Protein (Homo sapiens, UniProt P49137).
T1 construct: purchased ThermoFisher pv3317
The assay can be described thus: MK2 kinase assay (Z'-LYTE kinase assay kit). The conditions noted are these: inhibition of MK2 biochemical activity; 90 min incubation at room temperature. On the procedure:
Materials and Reagents for Measuring Inhibition of MK2 Biochemical Activity: • 1) Assay plate: 384 Well Low Volume Black Round Bottom Polystyrene NBS Microplate (Corning, Cat.No. 4514) • 2) MK2 kinase assay kit: Z' LYTE KINASE ASSAY KIT (ThermoFisher, Cat.No. pv3177) • 3) MAPKAPK2 Recombinant Human Protein (ThermoFisher, Cat.No. pv3317) • 4) DMSO (Vetec, Cat.No. V900090) • 5) DTT (Sigma, Cat.No. D0632)
MK2 Kinase Assay Procedure: • 1) Dispense 5 μl Kinase/Peptide Mixture to each wells of 384-well plate • 2) Add 2.5 μl 4× Test Compound to each well • 3) Add 2.5 μl 4× ATP Solution to each well • 4) After 90 minutes incubation at room temperature, add 5 μl Development Solution to each well • 5) After 60 minutes incubation at room temperature, add 5 μl stop Solution to each well • 6) Measure the Coumarin (Ex. 400 nm, Em. 445 nm) and Fluorescein (Ex. 400 nm, Em. 520 nm) emission signals on an Envision plate reader (PerkinElmer)

Another assay concerns THP-1 cells. The assay can be described thus: THP-1 cell assay: LPS-stimulated pSer78-Hsp27 ELISA. The conditions noted are these: Homo sapiens, PMA-differentiated THP-1 cells, compound 60 min before 20 ng/mL LPS for 30 min. The format is cell-based. The text has this:
Materials and Reagents for Measuring Activity in THP-1 Cells: • 1) THP-1 cells (Cell bank of Shanghai) • 2) PMA (Sigma, Cat.No. P1585) • 3) LPS (Sigma, Cat.No. L4516) • 4) 96-well tissue-culture treated plate (Grenier, Cat.No. 655180) • 5) FBS (Thermofisher, Cat.No. 10100147) • 6) Complete EDTA-free protease inhibitor Cocktail (Roche, Cat.No. 4693132001) • 7) PhosSTOP (Roche, Cat.No. 4906845001) • 8) Phosphor-Hsp27 (Ser78) Sandwich Elisa kit (CST, Cat.No. 7295)
Cell Assay Procedure: • 1) Day 0: THP-1 cells are seeded at 50K/well in complete media (1640+10% FBS+50 μM β-ME)+20 ng/mL PMA in 96-well plate • 2) Day 1: PMA containing media is removed after 24 h incubation (37° C./5% CO2), and replaced with complete growth media. Cells are incubated an additional 48 h to recover. • 3) Day 3: Cells are incubated with or without compounds at indicated concentrations for 60 min, prior to addition of 20 ng/mL LPS. Cells are stimulated for 30 min with LPS, washed 1× with ice cold PBS, lysed on ice in Lysis buffer provided in ELISA kit with Roche protease & phosphatase inhibitors. Extracts are clarified by refrigerated centrifugation & stored at −80° C. until pHsp27/total Hsp27 ELISAs • 4) Day 3 or Day 4: Cell Signaling Technology ELISA is run for pSer78-Hsp27 on lysates diluted to approximately 2.5 μg/well. • 5) The absorbance at 450 nm was read in a SpectraMax plus plate reader (Molecular Devices). Data was processed using GraphPad prism 8.0.
A general note: In an ELISA, binding on a coated surface is turned into a signal by an enzyme label.

T1 sequence (P49137 whole entry): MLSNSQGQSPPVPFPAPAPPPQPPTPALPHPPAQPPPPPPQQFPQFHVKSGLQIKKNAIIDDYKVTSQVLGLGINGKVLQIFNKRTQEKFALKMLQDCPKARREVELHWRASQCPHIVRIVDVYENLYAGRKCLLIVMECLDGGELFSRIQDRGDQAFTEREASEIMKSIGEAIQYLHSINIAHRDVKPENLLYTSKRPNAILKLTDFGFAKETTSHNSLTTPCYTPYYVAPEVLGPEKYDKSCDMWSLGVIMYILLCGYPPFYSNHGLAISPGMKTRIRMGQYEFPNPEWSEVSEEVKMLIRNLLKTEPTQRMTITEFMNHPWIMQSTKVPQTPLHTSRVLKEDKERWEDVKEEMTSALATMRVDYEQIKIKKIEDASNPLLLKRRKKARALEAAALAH

Take `CN(C)C[C@@H]1CCN1C(=O)c1ccc2c(c1)Cn1cc(-c3ccc(C#N)cc3)cc1-c1nccn1-2` [Example 116]: the IC50 (in assay [1]; in the assay with THP-1 cells) was less than 50 nM in each case.
With `CN(CCO)C[C@H]1CC(=O)N(c2ccc3c(c2)Cn2cc(-c4ccc(F)cc4)cc2-c2nccn2-3)C1` [Example 89, (R)-1-(12-(4-Fluorophenyl)-9H-benzo[e]imidazo[2,1-c]pyrrolo[1,2-a][1,4]diazepin-7-yl)-4-(((2-hydroxyethyl)(methyl)amino)methyl)pyrrolidin-2-one], the IC50 (in assay [1]; in the assay on THP-1 cells) was 50 to 100 nM each time.
As for `N#Cc1ccc(-c2cc3n(c2)Cc2cc(N4C[C@H]5CNC[C@H]5C4=O)ccc2-n2ccnc2-3)cc1` (relative stereo) [Example 30, cis-4-(7-(1-oxohexahydropyrrolo[3,4-c]pyrrol-2(1H)-yl)-9H-benzo[e]imidazo [2,1-c]pyrrolo[1,2-a][1,4]diazepin-12-yl)benzonitrile], the figures for the IC50 (in assay [1]; in the assay with THP-1 cells) were 50 to 100 nM and 200 to 300 nM, respectively.
With `CN(C)C[C@@H]1CC(=O)N(c2ccc3c(c2)Cn2cc(-c4ccc(C#N)cc4)cc2-c2nccn2-3)C1` [Example 17, (S)-4-(7-(4-((Dimethylamino)methyl)-2-oxopyrrolidin-1-yl)-9H-benzo[e]imidazo[2,1-c]pyrrolo[1,2-a][1,4]diazepin-12-yl)benzonitrile], the IC50 in assay [1] lay in the range of 50 to 100 nM; in the assay on THP-1 cells, 200 to 300 nM.
For the compound `CN1CC2(C1)CN(C(=O)c1ccc3c(c1)Cn1cc(-c4ccc(C#N)cc4)cc1-c1nccn1-3)C2` [Example 109], the values for the IC50 (in assay [1]; in the assay on THP-1 cells) were 50 to 100 nM and 200 to 300 nM, respectively.
For `CN(C)C[C@@H]1CCN(c2ccc3c(c2)Cn2cc(-c4ccc(C#N)cc4)cc2-c2nccn2-3)C1=O` (single isomer, unassigned) [Example 36], the concentration for half-maximal inhibition (IC50) (in assay [1]; in the assay on THP-1 cells) was less than 50 nM each time.
In the case of `N#Cc1ccc(-c2cc3n(c2)Cc2cc(N4CC5(CNC5)CC4=O)ccc2-n2ccnc2-3)cc1` [Example 22, 4-(7-(7-Oxo-2,6-diazaspiro[3.4]octan-6-yl)-9H-benzo[e]imidazo[2,1-c]pyrrolo [1,2-a][1,4]diazepin-12-yl)benzonitrile], the IC50 in assay [1] was less than 50 nM; in the assay on THP-1 cells, 1000 to 1500 nM.
As to `CN(C)CC1(C)CC(=O)N(c2ccc3c(c2)Cn2cc(-c4ccc(C#N)cc4)cc2-c2nccn2-3)C1` (stereo not drawn) [Example 33, 4-(7-(4-((Dimethylamino)methyl)-4-methyl-2-oxopyrrolidin-1-yl)-9H-benzo [e]imidazo[2,1-c]pyrrolo[1,2-a][1,4]diazepin-12-yl)benzonitrile], the values for the IC50 (in assay [1]; in the assay on THP-1 cells) were less than 50 nM and 400 to 500 nM, respectively.
Regarding `CC(C)(N)C[C@H]1CCN(c2ccc3c(c2)Cn2cc(-c4ccc(C#N)cc4)cc2-c2nccn2-3)C1=O` [Example 43, (R)-4-(7-(3-(2-Amino-2-methylpropyl)-2-oxopyrrolidin-1-yl)-9H-benzo[e]imidazo[2,1-c]pyrrolo[1,2-a][1,4]diazepin-12-yl)benzonitrile], the IC50 was less than 50 nM in assay [1] and 300 to 400 nM in the assay on THP-1 cells.
For `CN1CC(N2C(=O)CN(c3ccc4c(c3)Cn3cc(-c5ccc(C#N)cc5)cc3-c3nccn3-4)C2=O)C1` [Example 69], the IC50 (in assay [1]; with THP-1 cells) was less than 50 nM in each case.
For the compound `CN1CC(n2ccn(-c3ccc4c(c3)Cn3cc(-c5ccc(C#N)cc5)cc3-c3nccn3-4)c2=O)C1` [Example 71, 4-(7-(3-(1-Methylazetidin-3-yl)-2-oxo-2,3-dihydro-1H-imidazol-1-yl)-9H-benzo[e]imidazo[2,1-c]pyrrolo[1,2-a][1,4]diazepin-12-yl)benzonitrile], the values for the IC50 (in assay [1]; in the assay with THP-1 cells) were 50 to 100 nM and 200 to 300 nM, respectively.
In the case of `CC(C)(C)NC[C@H]1CC(=O)N(c2ccc3c(c2)Cn2cc(-c4ccc(C#N)cc4)cc2-c2nccn2-3)C1` [Example 13], the IC50 was less than 50 nM in assay [1] and 100 to 200 nM in the assay with THP-1 cells.
Regarding `CC1(C)CCN1C[C@H]1CC(=O)N(c2ccc3c(c2)Cn2cc(-c4ccc(C#N)cc4)cc2-c2nccn2-3)C1` [Example 19], the IC50 in assay [1] is less than 50 nM; in the assay on THP-1 cells, 50 to 100 nM.
`C[C@H]1[C@@H](CN(C)C)OC(=O)N1c1ccc2c(c1)Cn1cc(-c3ccc(C#N)cc3)cc1-c1nccn1-2` [Example 61, 4-(7-((4S,5R)-5-((Dimethylamino)methyl)-4-methyl-2-oxooxazolidin-3-yl)-9H-benzo[e]imidazo[2,1-c]pyrrolo[1,2-a][1,4]diazepin-12-yl)benzonitrile]: the IC50 in assay [1] lay within 50 to 100 nM; in the assay on THP-1 cells, 300 to 400 nM.
Regarding `CN(C)C[C@H]1C[C@@]12CCN(c1ccc3c(c1)Cn1cc(-c4ccc(C#N)cc4)cc1-c1nccn1-3)C2=O` [Example 48, 4-(7-((1S,3R)-1-((dimethylamino)methyl)-4-oxo-5-azaspiro[2.4]heptan-5-yl)-9H-benzo[e]imidazo[2,1-c]pyrrolo[1,2-a][1,4]diazepin-12-yl)benzonitrile], the concentration for half-maximal inhibition (IC50) lay within 50 to 100 nM in assay [1] and 200 to 300 nM in the assay with THP-1 cells.
With `N#Cc1ccc(-c2cc3n(c2)Cc2cc(N4C[C@@H](CNC5COC5)CC4=O)ccc2-n2ccnc2-3)cc1` [Example 14], the IC50 was 50 to 100 nM in assay [1] and 100 to 200 nM in the assay on THP-1 cells.
Regarding `CNC[C@@H]1CCN1C(=O)c1ccc2c(c1)Cn1cc(-c3ccc(C#N)cc3)cc1-c1nccn1-2` [Example 137, (S)-4-(7-(2-((Methylamino)methyl)azetidine-1-carbonyl)-9H-benzo[e]imidazo [2,1-c]pyrrolo[1,2-a][1,4]diazepin-12-yl)benzonitrile], the IC50 in the assay on THP-1 cells was in the range of 200 to 300 nM.
Compound `[2H]C([2H])([2H])N(C[C@@H]1CCN1C(=O)c1ccc2c(c1)Cn1cc(-c3ccc(C#N)cc3)cc1-c1nccn1-2)C([2H])([2H])[2H]` [Example 120, (S)-4-(7-(2-((Bis(methyl-d3)amino)methyl)azetidine-1-carbonyl)-9H-benzo[e]imidazo[2,1-c]pyrrolo[1,2-a][1,4]diazepin-12-yl)benzonitrile] had an IC50 with THP-1 cells of less than 50 nM.
In the case of `N#Cc1ccc(-c2cc3n(c2)Cc2cc(C(=O)NCCN4CCC4)ccc2-n2ccnc2-3)cc1` [Example 118], the IC50 in assay [1] is 100 to 200 nM.
`N#Cc1ccc(-c2cc3n(c2)Cc2cc(N4C[C@H](CO)NCC4=O)ccc2-n2ccnc2-3)cc1` [Example 80, (R)-4-(7-(5-(Hydroxymethyl)-2-oxopiperazin-1-yl)-9H-benzo[e]imidazo[2,1-c]pyrrolo[1,2-a][1,4]diazepin-12-yl)benzonitrile]: in assay [1], the IC50 was in the range of 50 to 100 nM.
Still for that read-out and setting: next, `CN(C)C[C@H]1CC(=O)N(c2ccc3c(c2F)Cn2cc(-c4ccc(C#N)cc4)cc2-c2nccn2-3)C1` [Example 92, (R)-4-(7-(4-((Dimethylamino)methyl)-2-oxopyrrolidin-1-yl)-8-fluoro-9H-benzo[e]imidazo[2,1-c]pyrrolo[1,2-a][1,4]diazepin-12-yl)benzonitrile]: 50 to 100 nM.
For the compound `CN1CC(N(C)C(=O)c2ccc3c(c2)Cn2cc(-c4ccc(C#N)cc4)cc2-c2nccn2-3)C1` [Example 132, 12-(4-Cyanophenyl)-N-methyl-N-(1-methylazetidin-3-yl)-9H-benzo[e]imidazo [2,1c]pyrrolo[1,2-a][1,4]diazepine-7-carboxamide], in assay [1], the IC50 lay in the range of 50 to 100 nM.
Regarding `CN1CCCC1CNC(=O)c1ccc2c(c1)Cn1cc(-c3ccc(C#N)cc3)cc1-c1nccn1-2` (stereo not drawn) [Example 106], the IC50 in assay [1] lay in the range of 100 to 200 nM.
As for `CN1CCC2(CC1)CN(C(=O)c1ccc3c(c1)Cn1cc(-c4ccc(C#N)cc4)cc1-c1nccn1-3)C2` [Example 131], the concentration for half-maximal inhibition (IC50) in assay [1] lay in the range of 50 to 100 nM.
Consider `CN(C)[C@H]1C[C@@H](NC(=O)c2ccc3c(c2)Cn2cc(-c4ccc(C#N)cc4)cc2-c2nccn2-3)C1` [Example 127], for which the IC50 in assay [1] was 100 to 200 nM.
Consider `[2H]C([2H])([2H])N(C([2H])([2H])[2H])C([2H])([2H])C1CCN(c2ccc3c(c2)Cn2cc(-c4ccc(C#N)cc4)cc2-c2nccn2-3)C1=O` (stereo not drawn) [Example 38, 4-(7-(3-((Dideuteratedmethylamino)deuteratedmethyl)-2-oxopyrrolidin-1-yl)-9H-benzo[e]imidazo[2,1-c]pyrrolo[1,2-a][1,4]diazepin-12-yl)benzonitrile], for which the concentration for half-maximal inhibition (IC50) in assay [1] was less than 50 nM.
